#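 Briefly, cells in 96-well plates were exposed to five compound concentrations for 48 h, and endpoints were estimated by linear interpolation. Abbreviation: GI50, concentration required for 50% inhibition of growth.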 Calls of active or inactive are those of the source. Cut-off read from the data, not from the text of the source: active = GI50 up to about 1.1 µM and inactive = higher.
# How the values were obtained:
# Assay in all cases: inhibition of tumour cell growth, NCI panel, 48 h
# [1] = system: UACC-62
# [2] = system: A498
# [3] = system: OVCAR-3
# [4] = system: M14
# [5] = system: 786-0
# [6] = system: CAKI-1
# [7] = system: SF-539
# [8] = system: MCF7
# [9] = system: U-251
# [10] = system: NCI-H23
# [11] = system: SR
# [12] = system: SN12C
# [13] = system: PC-3
# [14] = system: SF-295
# [15] = system: OVCAR-8
# [16] = system: RPMI-8226
# [17] = system: HT-29
# [18] = system: HCT-15
# [19] = system: IGROV-1
# [20] = system: TK-10
SMILES,GI50 [1],GI50 [2],GI50 [3],GI50 [4],GI50 [5],GI50 [6],GI50 [7],GI50 [8],GI50 [9],GI50 [10],GI50 [11],GI50 [12],GI50 [13],GI50 [14],GI50 [15],GI50 [16],GI50 [17],GI50 [18],GI50 [19],GI50 [20]
CC(CO)CCC(O)C(C)(O)C1CCC2(O)C3=CC(=O)C4CC(O)C(O)CC4(C)C3CCC12C (stereo not drawn),> 100 µM (inactive),> 100 µM (inactive),> 100 µM (inactive),> 100 µM (inactive),> 100 µM (inactive),> 100 µM (inactive),> 100 µM (inactive),> 100 µM (inactive),> 100 µM (inactive),> 100 µM (inactive),> 100 µM (inactive),> 100 µM (inactive),> 100 µM (inactive),> 100 µM (inactive),> 100 µM (inactive),> 100 µM (inactive),> 100 µM (inactive),> 100 µM,,
CN1C(=O)C(O)CC1c1ccccc1C(F)(F)F (stereo not drawn),> 100 µM (inactive),> 100 µM (inactive),> 100 µM (inactive),> 100 µM (inactive),> 100 µM (inactive),> 100 µM (inactive),> 100 µM (inactive),> 100 µM (inactive),> 100 µM (inactive),> 100 µM (inactive),> 10 µM (inactive),> 100 µM (inactive),> 100 µM (inactive),> 100 µM (inactive),> 100 µM (inactive),> 100 µM (inactive),> 100 µM (inactive),> 100 µM,> 100 µM (inactive),
CC(=O)n1nc(-c2ccc3ccccc3c2)nc1C,89.9 µM (inactive),,> 100 µM (inactive),> 100 µM (inactive),> 100 µM (inactive),53.7 µM (inactive),> 100 µM (inactive),> 100 µM (inactive),,> 10 µM (inactive),> 100 µM (inactive),> 100 µM (inactive),62.2 µM (inactive),52.8 µM (inactive),> 100 µM (inactive),,> 100 µM (inactive),35.6 µM,> 100 µM (inactive),> 100 µM (inactive)
COc1ccc(OC)c(-c2cn3c(n2)sc2ccccc23)c1,64.1 µM (inactive),,> 100 µM (inactive),,58.5 µM (inactive),> 100 µM (inactive),> 100 µM (inactive),3.44 µM (inactive),> 100 µM (inactive),> 100 µM (inactive),> 100 µM (inactive),> 100 µM (inactive),30.6 µM (inactive),95.3 µM (inactive),94.8 µM (inactive),> 100 µM (inactive),8.26 µM (inactive),> 100 µM,> 100 µM (inactive),> 100 µM (inactive)
CCn1cc2c(=O)n3ncn(-c4ccc(Br)cc4)c3nc2n1,> 100 µM (inactive),> 100 µM (inactive),> 100 µM (inactive),> 100 µM (inactive),63.2 µM (inactive),0.942 µM (active),,> 100 µM (inactive),58.1 µM (inactive),> 100 µM (inactive),> 100 µM (inactive),> 100 µM (inactive),> 100 µM (inactive),> 100 µM (inactive),78.9 µM (inactive),40.3 µM (inactive),> 100 µM (inactive),93.8 µM,29.6 µM (inactive),78.2 µM (inactive)
CO[C@H]1O[C@@H]2CO[C@@H](c3ccccc3)O[C@H]2C[C@]12CCC/C=C\CO2,27.4 µM (inactive),14 µM (inactive),12.7 µM (inactive),15.8 µM (inactive),14.2 µM (inactive),25.9 µM (inactive),14.6 µM (inactive),15.2 µM (inactive),12.6 µM (inactive),21.1 µM (inactive),13.7 µM (inactive),14.8 µM (inactive),16.2 µM (inactive),25.8 µM (inactive),12.1 µM (inactive),,17.7 µM (inactive),13 µM,,22.6 µM (inactive)
COC(=O)C1(C(=O)OC)Cc2ccc(OC)cc2C2=C1C(=O)c1ccccc1C2=O,1.85 µM (inactive),18.3 µM (inactive),0.282 µM (active),18.4 µM (inactive),4.75 µM (inactive),0.423 µM (active),16.6 µM (inactive),2.55 µM (inactive),5.56 µM (inactive),6.62 µM (inactive),3.54 µM (inactive),4.42 µM (inactive),1.87 µM (inactive),3.77 µM (inactive),2.4 µM (inactive),,14.4 µM (inactive),10.7 µM,2.77 µM (inactive),18.4 µM (inactive)
